Where “and” joins values, the source holds several entries; their conditions need not be identical. Equal entries are not always repeated. Entries after “also recorded” stand apart in the source; their conditions may differ.

From patent US20120164083A1, “Sweetness Enhancers Including Rebaudioside A or D” (Redpoint Bio Corporation, priority 2009, published 2012) come the findings set out here.

Holding throughout (format): in vivo, human
Assay [1] concerns expert taste panel. Put plainly: double-blind controlled sweetness intensity test of solutions, sequential monadic, sip and spit (Example 1 protocol). As to conditions: for sweetness of the solution compared with 7% (w/v-%) fructose solution: 300 μM in 5% (w/v-%) fructose solution; for sweetness of the solution compared with 7% (w/v-%) sucrose solution: 300 μM in 5% (w/v-%) sucrose solution, 20 judges; for mean sweetness intensity score: scale 0 to 8.

Assay [2] has as its system expert taste panel. Put plainly: double-blind controlled sweetness intensity test of enhancer combinations, taste and swallow (Example 12 protocol). As to conditions: 5% (w/v-%) sucrose solution alone; scale 0 to 8. The method, then:
The sweetness enhancing effect of the combination of 40 μM Reb A (purity>95%) and 300 μM Reb C (Chromadex, CA; purity 94.9%; 2.9% impurities other than water) on 5% (w/v-%) sucrose solution was evaluated in a double-blind controlled test conducted according to the following protocol. Four products were evaluated by trained judges as follows: • low concentration sucrose (5% w/v) • low concentration sucrose+sweetness enhancer 1 (40 μM Reb A) • low concentration sucrose+sweetness enhancer 2 (300 μM Reb C) • low concentration sucrose+sweetness enhancer 1+sweetness enhancer 2
The products were evaluated using a sequential monadic test protocol. Subjects were given three 10 ml samples to evaluate. Each subject was directed to taste and swallow each sample and then assess the sweetness intensity of the sample. The intensity was rated on a score card by marking a numerical value along a scale from 0 to 8 (e.g., 0=none, 2=slight, 4=definite, 8=very strong). Following the decision regarding the sweetness intensity, subjects were instructed to vigorously rinse their mouth with water. Subjects then were given unsalted crackers to cleanse the palate. […] A second sample was then presented and evaluated as above and the same procedure was followed until all three products were evaluated. […]

Assay [3] deals with expert taste panel. Put plainly: double-blind controlled sweetness intensity test in iced tea, taste and swallow (Example 6 protocol). The protocol:
The sweetness enhancing effect of 300 μM Reb C (Chromadex, CA; purity 94.9%; […]) (equivalent to the sweetness intensity of an 8% (w/v-%) sucrose solution) was evaluated in a double-blind controlled test conducted according to the following protocol. Three products were evaluated by trained judges as follows: • high concentration HFCS (14.29% w/v; equivalent to 11% w/v sucrose solution) • low concentration HFCS (10.39% w/v; equivalent to 8% w/v sucrose solution) • low concentration HFCS+sweetness enhancer (test compound)
The products were evaluated using a sequential monadic test protocol. Subjects were given three 10 ml samples to evaluate. Each subject was directed to taste and swallow each sample and then assess the sweetness intensity of the sample. The intensity was rated on a score card by marking a numerical value along a scale from 0 to 8 (e.g., 0=none, 2=slight, 4=definite, 8=very strong). Following the decision regarding the sweetness intensity, subjects were instructed to vigorously rinse their mouth with water. Subjects then were given unsalted crackers to cleanse the palate. A period of 10 minutes elapsed between presentations of each sample to reduce the potential influence of residual taste effects. A second sample was then presented and evaluated as above and the same procedure was followed until all three products were evaluated. […]

Assay [4] concerns panelists. The experiment in a line: quantitative flavor profile by trained panelists (Example 11). The method, then: The taste of 150, 300, and 600 μM Reb C was evaluated by a test group. 10 panelists were trained over a period of a few weeks to provide a quantitative flavor profile of Reb C. Panelists first were trained using standard tastants representing the different taste modalities given in FIG. 10 (i.e., sweet, bitter, salt, sour, and licorice). They then were trained to use the scales when flavors were mixed together. All intensity ratings are on scales ranging from 0 (no taste) to 8 (highest intensity). The intensity rating for sweet is essentially the same as used in Examples 1 and 6. The taste profiles were obtained for 150, 300, and 600 μM Reb C. Reb A (0.2 mg/ml, a concentration used in some food/beverage applications for sweetening) was also evaluated in the test for comparison. The scale is not linear at the bottom. A rating of 1 is around the threshold for sweetness detection.

The subject of assay [5] is subjects. Put plainly: qualitative taste evaluation of Reb C water solutions (forced-choice and open report, Example 3). As to conditions: for qualitative taste description: one line per subject. The method, then: Subjects were asked to sip most or all of the 10 ml from the first cup, swish the liquid in their oral cavity, and expectorate into a cup, then rinse their mouths vigorously with water. Soon thereafter, the contents of the second cup were sampled in the same manner. Then, subjects were asked to choose the sweeter of the two samples, or if not sweet, to describe the qualitative taste profile of the sample having a detectable taste. […] The subjects have the following qualitative taste descriptions: […]

Setting [6] is: 300 μM in 8% (w/v-%) sucrose solution.
[7] abbreviates: 250 μM water solution, five subjects.

On to `C=C1C[C@@]23CC[C@H]4[C@@](C)(CCC[C@@]4(C)C(=O)O[C@@H]4O[C@H](CO)[C@@H](O)[C@H](O)[C@H]4O)[C@@H]2CC[C@]1(O[C@@H]1O[C@H](CO)[C@@H](O)[C@H](O)[C@H]1O[C@@H]1O[C@@H](C)[C@H](O)[C@@H](O)[C@H]1O)C3` [Dulc A, dulcoside A], for which, in assay [1], the “sweetness of the solution compared with 7% (w/v-%) fructose solution” value is “achieved that of a 7% (w/v-%) fructose solution” and the “sweetness of the solution compared with 7% (w/v-%) sucrose solution” value is reported as “achieved that of a 7% (w/v-%) sucrose solution”. In assay [1] (setting [6]), the off-tastes entry is recorded as “No off-tastes were detected” and the “sweetness of the solution compared with 11% (w/v-%) sucrose solution” value is “approached that of an 11% (w/v-%) sucrose solution”. Also, the “mean sweetness intensity score” value in assay [1] (8% (w/v-%) sucrose solution with 300 μM Dulc A) came out at 6.3.

Take `OC[C@H]1O[C@@](CO)(O[C@H]2O[C@H](CO)[C@@H](O)[C@H](O)[C@H]2O)[C@@H](O)[C@@H]1O` [sucrose, α-D-glucopyranosyl-(1→2)-β-D-fructofuranose, reference compound]: the “mean sweetness intensity score” value in assay [1] (8% (w/v-%) sucrose solution alone) is 5.30 and 5.0; in assay [1] (11% (w/v-%) sucrose solution alone), 6.95 and 6.7. Also, the mean sweetness intensity result in assay [2] is “about 4”.

rebaudioside C [Reb C]: the “sweetness of the solution compared with 8% and 11% (w/v-%) sucrose solutions” value in assay [1] (150 μM in 8% (w/v-%) sucrose solution) was “between that of the 8% (w/v-%) sucrose solution and that of an 11% (w/v-%) sucrose solution”. In addition, in assay [1], the “sweetness of the solution compared with 7% (w/v-%) fructose solution” value is “close to that of a 7% (w/v-%) fructose solution” and the “sweetness of the solution compared with 7% (w/v-%) sucrose solution” value is “indistinguishable from that of a 7% (w/v-%) sucrose solution”. The “sweetness of the solution compared with 11% (w/v-%) sucrose solution” value in assay [1] (setting [6]) is on record as “close to that of an 11% (w/v-%) sucrose solution”. In addition, in assay [1] (8% (w/v-%) sucrose solution with 150 μM Reb C), the “mean sweetness intensity score” value worked out at 6.10. For the same compound, the “sweetness compared with 8% and 11% (w/v-%) sucrose” value in assay [3] (300 μM in iced tea with 8% (w/v-%) sucrose) was “between that of the 8% (w/v-%) solution and that of an 11% (w/v-%) sucrose solution”. Also, the “sweetness compared with 14.29% (w/v-%) HFCS solution (equivalent to 11% sucrose)” value in assay [3] (300 μM in iced tea with 10.39% (w/v-%) HFCS) is “indistinguishable from that of a 14.29% (w/v-%) HFCS solution”. In assay [4] (150, 300 and 600 μM alone), the “unpleasant tastes, bitter and licorice” value was “barely detected”. Moreover, the intrinsic sweetness entry in assay [4] (150, 300 and 600 μM, scale 0 to 8) is given as “little or no intrinsic sweetness”. Besides, in assay [4] (combined with sugar), the “unpleasant tastes, bitter and licorice” value is “undetected”. In assay [5] (setting [7]), the “forced-choice identification of the sample against water” value is “All subjects correctly identified the sample containing Reb C” and the qualitative taste description result was “Metallic, not sweet; also recorded: Aversive (“Nasty”); also recorded: Slight sweet, astringent; also recorded: Faintly sweet; also recorded: Slight sweet/licorice”. Besides, the qualitative taste description result in assay [5] (250 and 300 μM in water, four subjects) is given as “Both concentrations bitter and/or licorice”.
